From patent US20250041334A1, “Compositions for Virulence Suppression” (Solventum Intellectual Properties Company, priority 2021, published 2025)

Experiments:
[1] = test system: accessory gene regulator (agr) system, agr P2-P3 GFP reporter pJY202; assay: Agr Reporter (Staph Aureus) Assay; format: cell-based, Staphylococcus aureus MN8; details: S. aureus MN8 (pJY202), 1X TY media, RFU normalized to OD600, 24 hours, n=3
Method: Description: The expression of many virulence factors in Staphylococcus aureus is controlled by the quorum sensing accessory gene regulator (agr) system. The plasmid pJY202 is an agr reporter that contains a fusion of the agr P2-P3 region with a gene coding for GFP.
(§1) An S. aureus MN8 (pJY202) colony was picked from a TSA plate and grown overnight in TSB media with 5 µg/mL erythromycin with shaking at 37° C. The culture was centrifuged at 3000×g for 5 minutes and the supernatant was removed. The bacteria were washed once with water.
(§2) Individual growth media solutions for the assay were freshly prepared by adding materials to 1X TY media with 5 μg/mL erythromycin and then adjusting the pH of each solution to about pH 6.0 (using 1M NaOH or 1M HCl). All the growth media solutions were sterile filtered when possible using a 0.2 micrometer filter.
(§3) An aliquot of each growth media solution (200 microliters) was added to the well of a 96-well black, clear-bottom plate. Samples were prepared in triplicate (n=3). The bacteria samples were resuspended in 5 mL of 1X TY media. […] Bacterial growth was measured at 600 nm (OD600) and Agr activity was measured as fluorescent intensity at 485 nm excitation/528 nm emission. Agr activity (relative fluorescence units, RFU) was normalized to bacterial growth (OD600) for each well. The Agr activity was measured at the 24 hour time point.

[2] = test system: S. aureus MN8 (pJY202); assay: Bacterial growth (OD600) in the Agr reporter assay; format: cell-based, Staphylococcus aureus MN8; details: 1X TY media, pH about 6.0, 24 hours
Method: as §1, §2
as §3, with “media. A 3 microliter sample of resuspended S. aureus MN8 (pJY202) was added to each well.” for “media.”

O=P([O-])(O)O.[K+] [50 mM KH2PO4, KH2PO4]
Agr Expression at 24 hours [1]: 86 +/− 6 | Growth OD600 at 24 hours [2]: 1.02
